Biological target: human TRPA1 (Homo sapiens (Human), UniProt O75762)
Assay: hTRPA1 CHO Ca2+ AUC EVO (IC50); FLIPR Tetra block of cinnamaldehyde induced calcium influx
Format: cell-based
Conditions: CHO cells expressing TRPA1, 75 uM cinnamaldehyde agonist
Method: IC50 values ([…]) of compounds on the human and rat TRPA1 channels were determined using a FLIPR Tetra instrument. CHO cells expressing TRPA1 were plated into 384-well plates, incubated overnight at 37 C, and loaded with BD calcium indicator dye for 1 hr at 37° C. followed by 15 minutes. at room temperature. The assay buffer was Hank's Balanced Salt Solution (HBSS) containing 20 mM HEPES (pH readjusted to 7.4) along with 0.02% BSA.
Following dye load and plate cool down, compounds were added to the cells using FLIPR Tetra. Plates were then incubated with compounds for 20 minutes at room temperature prior to adding agonist. Following this incubation, ˜EC80 concentration of cinnamaldehyde (75 uM for human TRPA1 and 45 uM for rat TRPA1) was added to active the channels and block of cinnamaldehyde induced calcium influx was measured.
IC50 values were fit with a standard Hill function, keeping the Hill coefficient (n) fixed to 1.5. Fixing the Hill coefficient will generally reduce variability of the IC50 determination. The IC50 values were individually examined to make sure the MIN and MAX points were set correctly prior to validation of the results.

Sequence of human TRPA1 (O75762 whole entry): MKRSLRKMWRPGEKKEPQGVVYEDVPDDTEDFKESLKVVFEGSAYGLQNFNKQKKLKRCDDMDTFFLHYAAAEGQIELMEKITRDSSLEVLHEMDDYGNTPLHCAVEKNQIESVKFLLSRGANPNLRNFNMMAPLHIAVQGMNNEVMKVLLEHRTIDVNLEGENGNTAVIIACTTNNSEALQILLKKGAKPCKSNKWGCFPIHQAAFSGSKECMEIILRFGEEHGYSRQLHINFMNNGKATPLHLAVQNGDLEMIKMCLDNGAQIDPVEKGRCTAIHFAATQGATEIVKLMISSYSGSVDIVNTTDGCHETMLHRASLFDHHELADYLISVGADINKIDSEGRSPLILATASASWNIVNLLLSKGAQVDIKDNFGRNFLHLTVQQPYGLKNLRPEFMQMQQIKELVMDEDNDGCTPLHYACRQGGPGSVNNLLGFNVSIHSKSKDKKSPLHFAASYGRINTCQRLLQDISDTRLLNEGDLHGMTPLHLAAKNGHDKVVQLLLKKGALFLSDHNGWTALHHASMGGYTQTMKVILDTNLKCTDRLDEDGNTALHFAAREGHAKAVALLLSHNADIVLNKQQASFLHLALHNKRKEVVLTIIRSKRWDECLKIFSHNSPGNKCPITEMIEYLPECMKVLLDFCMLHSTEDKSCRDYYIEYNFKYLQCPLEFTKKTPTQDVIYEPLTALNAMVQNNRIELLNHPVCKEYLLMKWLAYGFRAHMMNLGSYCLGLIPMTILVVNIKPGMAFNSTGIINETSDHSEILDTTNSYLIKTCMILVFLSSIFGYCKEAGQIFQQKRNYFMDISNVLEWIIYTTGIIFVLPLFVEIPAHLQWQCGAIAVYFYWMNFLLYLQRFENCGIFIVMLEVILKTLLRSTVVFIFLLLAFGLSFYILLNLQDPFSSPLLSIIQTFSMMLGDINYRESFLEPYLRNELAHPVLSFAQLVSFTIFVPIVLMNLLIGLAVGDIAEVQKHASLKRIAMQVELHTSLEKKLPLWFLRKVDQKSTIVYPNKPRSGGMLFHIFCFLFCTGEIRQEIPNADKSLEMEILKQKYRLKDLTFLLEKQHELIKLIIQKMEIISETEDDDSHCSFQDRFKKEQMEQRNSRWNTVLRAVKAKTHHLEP

IC50 (Table 3) [nM] | IC50 (Table 1) [nM] | Structure (SMILES)
159 | – | COc1nn(-c2ccc(C(F)(F)F)nc2)cc1CNC(=O)[C@@H]1CCC[C@@H]1S(=O)(=O)c1ccc(F)cc1 [Example 40, (1S,2S)-2-(4-fluorophenylsulfonyl)-N-((3-methoxy-1-(6-(trifluoromethyl)pyridin-3-yl)-1H-pyrazol-4-yl)methyl) cyclopentanecarboxamide]
18.5 | 18.5 | COc1nn(-c2ccc(C(F)(F)F)nc2)cc1CC(=O)N[C@@H]1CC[C@@H]1S(=O)(=O)c1ccc(F)cc1 [Example 13, N-((1R,2S)-2-((4-fluorophenyl)sulfonyl)cyclobutyl)-2-(3-methoxy-1-(6-(trifluoromethyl)pyridin-3-yl)-1H-pyrazol-4-yl)acetamide]
34.6 | – | O=C(NCc1cn(-c2ccc(C(F)(F)F)cc2)nc1C(F)F)[C@@H]1CC[C@@H]1S(=O)(=O)c1ccc(F)cc1 [Example 1, (1S,2S)-N-((3-(difluoromethyl)-1-(4-(trifluoromethyl)phenyl)-1H-pyrazol-4-yl)methyl)-2-(4-fluorophenylsulfonyl) cyclobutanecarboxamide]
113 | – | O=C(NCc1cc(-c2ccc(C(F)(F)F)cc2)ncn1)[C@@H]1CC[C@@H]1S(=O)(=O)c1ccc(F)cc1 [Example 27, (1S,2S)-2-(4-fluorophenylsulfonyl)-N-((6-(4-(trifluoromethyl)phenyl)pyrimidin-4-yl)methyl)cyclobutanecarboxamide]
45.5 | 45.5 | O=C(NCc1cn(-c2ccc(C(F)(F)F)cc2)nc1Cl)C1CCCC1S(=O)(=O)c1ccc(F)cc1 (single isomer, unassigned; enantiomer 2) [Example 42, N-((3-chloro-1-(4-(trifluoromethyl)phenyl)-1H-pyrazol-4-yl)methyl)-2-(4-fluorophenylsulfonyl) cyclopentanecarboxamide (Enantiomer 2)]
65.8 | – | O=C(NCc1cn(-c2ccc(C(F)(F)F)cc2)nc1Cl)C1CCC1S(=O)(=O)c1ccc(F)cc1 (single isomer, unassigned; enantiomer 2) [Example 29, N-((3-chloro-1-(4-(trifluoromethyl)phenyl)-1H-pyrazol-4-yl)methyl)-2-(4-fluorophenylsulfonyl) cyclobutanecarboxamide (Enantiomer 2)]
38 | 38 | COc1nn(-c2ccc(C(F)(F)F)cc2)cc1CNC(=O)C1CCC1(C)S(=O)(=O)c1ccc(F)cc1 (single isomer, unassigned; enantiomer 2) [Example 23, 2-(4-fluorophenylsulfonyl)-N-((3-methoxy-1-(4-(trifluoromethyl)phenyl)-1H-pyrazol-4-yl)methyl)-2-methylcyclobutanecarboxamide (Enantiomer 2)]
21.8 | – | O=C(NCc1cn(-c2ccc(C(F)(F)F)nc2)nc1C(F)(F)F)[C@@H]1CCC[C@@H]1S(=O)(=O)c1ccc(F)cc1 [Example 4, (1S,2S)-2-[(4-fluorobenzene)sulfonyl]-N-[[3-(trifluoromethyl)-1-[6-(trifluoromethyl)pyridin-3-yl]-1H-pyrazol-4-yl]methyl]cyclopentane-1-carboxamide]
199 | – | COc1nn(-c2ccc(C(F)(F)F)nc2)cc1CNC(=O)C1(C)CCCC1S(=O)(=O)c1ccc(F)cc1 (single isomer, unassigned; enantiomer 2) [Example 35, 2-(4-fluorophenylsulfonyl)-N-((3-methoxy-1-(6-(trifluoromethyl)pyridin-3-yl)-1H-pyrazol-4-yl)methyl)-1-methylcyclopentanecarboxamide (Enantiomer 2)]
40.3 | 40.3 | O=C(Cc1cn(-c2cnc(C(F)(F)F)nc2)nc1Cl)N[C@@H]1CC[C@@H]1S(=O)(=O)c1ccc(F)cc1 [Example 7, 2-(3-chloro-1-(2-(trifluoromethyl)pyrimidin-5-yl)-1H-pyrazol-4-yl)-N-((1R,2S)-2-(4-fluorophenylsulfonyl)cyclobutyl) acetamide]
500 | – | O=C(Cc1cn(-c2cnc(C(F)(F)F)nc2)nc1C(F)(F)F)N[C@@H]1CC[C@@H]1[S+]([O-])c1ccc(F)cc1 (stereo partly drawn) [Example 2, N-((1R,2S)-2-(4-fluorophenylsulfinyl)cyclobutyl)-2-(3-(trifluoromethyl)-1-(2-(trifluoromethyl)pyrimidin-5-yl)-1H-pyrazol-4-yl)acetamide]
8.79 | 8.79 | CC1(C(=O)NCc2cn(-c3ccc(C(F)(F)F)cc3)nc2Cl)CCCC1S(=O)(=O)c1ccc(F)cc1 (single isomer, unassigned; enantiomer 1) [Example 5, N-((3-chloro-1-(4-(trifluoromethyl)phenyl)-1H-pyrazol-4-yl)methyl)-2-(4-fluorophenylsulfonyl)-1-methylcyclopentanecarboxamide (Enantiomer 1)]
43.6 | – | COc1nn(-c2ccc(C(F)F)cc2)cc1CC(=O)N[C@@H]1CC[C@@H]1S(=O)(=O)c1ccc(F)cc1 [Example 10, 2-(1-(4-(difluoromethyl)phenyl)-3-methoxy-1H-pyrazol-4-yl)-N-((1R,2S)-2-(4-fluorophenylsulfonyl)cyclobutyl) acetamide]
40.4 | – | O=C(NCc1cn(-c2ccc(C(F)(F)F)nc2)nc1C(F)(F)F)[C@@H]1CCC[C@@H]1S(=O)(=O)c1ccc(F)cc1 [Example 41, (1S,2S)-2-[(4-fluorobenzene)sulfonyl]-N-[[3-(trifluoromethyl)-1-[6-(trifluoromethyl)pyridin-3-yl]-1H-pyrazol-4-yl]methyl]cyclopentane-1-carboxamide]
71.7 | – | COc1nn(-c2ccc(C(F)(F)F)cc2)cc1CNC(=O)C1CCC1(C)S(=O)(=O)c1ccc(F)cc1 (single isomer, unassigned; enantiomer 1) [Example 22, 2-(4-fluorophenylsulfonyl)-N-(3-methoxy-1-(4-(trifluoromethyl)phenyl)-1H-pyrazol-4-yl)methyl)-2-methylcyclobutanecarboxamide (Enantiomer 1)]
62.2 | – | COc1nn(-c2ccc(C(F)(F)F)nc2)cc1CNC(=O)C1(C)CCCC1S(=O)(=O)c1ccc(F)cc1 (single isomer, unassigned; enantiomer 3) [Example 36, 2-(4-fluorophenylsulfonyl)-N-((3-methoxy-1-(6-(trifluoromethyl)pyridin-3-yl)-1H-pyrazol-4-yl)methyl)-1-methylcyclopentanecarboxamide (Enantiomer 3)]
33.1 | 33.1 | COc1nn(-c2ccc(C(F)(F)F)nc2)cc1CNC(=O)C1(C)CCCC1S(=O)(=O)c1ccc(F)cc1 (single isomer, unassigned; enantiomer 1) [Example 34, 2-(4-fluorophenylsulfonyl)-N-((3-methoxy-1-(6-(trifluoromethyl)pyridin-3-yl)-1H-pyrazol-4-yl)methyl)-1-methylcyclopentanecarboxamide (Enantiomer 1)]
